Assay results: ChEMBL document CHEMBL1275339, “Anti-leishmanial and anti-trypanosomal activities of 1,4-dihydropyridines: In vitro evaluation and structure-activity relationship study” (Bioorg Med Chem, 2010)

Experiments:
Leishmania chagasi [1] = assay: Antileishmanial activity against promastigotes of Leishmania chagasi MHOM/BR/1972/LD after 18 hrs by MTT assay; format: functional, organism-based
Leishmania chagasi [2] = assay: Antileishmanial activity against amastigotes of Leishmania chagasi MHOM/BR/1972/LD after 24 hrs by MTT assay; format: functional, organism-based
Leishmania amazonensis = assay: Antileishmanial activity against promastigotes of Leishmania amazonensis WHO/BR/00/LT0016 after 18 hrs by MTT assay; format: functional, organism-based; details: WHO/BR/00/LT0016, 18 h
Leishmania major = assay: Antileishmanial activity against promastigotes of Leishmania major MHOM/1L/80/Fredlin after 18 hrs by MTT assay; format: functional, organism-based
Leishmania braziliensis = assay: Antileishmanial activity against promastigotes of Leishmania braziliensis MHO/BR/75/M2903 after 18 hrs by MTT assay; format: functional, organism-based; details: MHO/BR/75/M2903, 18 h
Trypanosoma cruzi [3] = assay: Antitrypanosomal activity against trypomastigotes of Trypanosoma cruzi infected in rhesus monkey LLC-MK2 cells after 48 hrs by MTT assay; format: functional, organism-based; details: LLC-MK2, 48 h
LLC-MK2 = assay: Cytotoxicity against rhesus monkey LLC-MK2 cells after 48 hrs by MTT assay; format: cell-based, Macaca mulatta
[4] = Selectivity index, ratio of IC50 for rhesus monkey LLC-MK2 cells to IC50 for amastigotes of Leishmania chagasi MHOM/BR/1972/LD; format: toxicity, cell-based; details: read-out: Selectivity Index
[5] = Selectivity index, ratio of IC50 for rhesus monkey LLC-MK2 cells to IC50 for trypomastigotes of Trypanosoma cruzi; format: toxicity, cell-based; details: read-out: Selectivity Index
[6] = Cytotoxicity in BALB/c mouse erythrocytes assessed as hemolysis at 50 uM after 3 hrs; format: cell-based; details: erythrocyte
Trypanosoma cruzi [7] = assay: Antitrypanosomal activity against epimastigotes of Trypanosoma cruzi; format: functional, organism-based
[8] = Leishmania chagasi, MHOM/BR/1972/LD, 24 h

Molecule	IC50 (Leishmania chagasi [1]) [µM]	IC50 (Leishmania chagasi [2]; [8]) [µM]	IC50 (Leishmania amazonensis) [µM]	IC50 (Leishmania major) [µM]	IC50 (Leishmania braziliensis) [µM]	IC50 (Trypanosoma cruzi [3]) [µM]	IC50 (LLC-MK2; Macaca mulatta, LLC-MK2, 48 h) [µM]	selectivity ratio [4]	selectivity ratio [5]	Activity [6]	IC50 (Trypanosoma cruzi [7]) [µM]	IC50 (Leishmania chagasi [2]) [µM]	IC50 (LLC-MK2; llc-mk2) [µM]
CCOC(=O)C1=C(COCCN)NC(C)=C(C(=O)OC)C1c1ccccc1Cl (centres undefined) [AMLODIPINE]	2.61	5.35	2.93	3.35	3.13	8.07	70.8	13.2	8.77	Non-toxic			
CC1=C(C(=O)OC(C)C)C(c2cccc([N+](=O)[O-])c2)C(C(=O)OC2CN(C(c3ccccc3)c3ccccc3)C2)=C(N)N1 (centres undefined) [AZELNIDIPINE]	33.4		20.5	17.1	13.7	2.9	33.5		11.5	Non-toxic			
O=C(Cn1ccnc1[N+](=O)[O-])NCc1ccccc1 [BENZNIDAZOLE]						172	> 1370			Non-toxic			
COCCOC(=O)C1=C(C)NC(C)=C(C(=O)OC/C=C/c2ccccc2)C1c1cccc([N+](=O)[O-])c1 (centres undefined) [CILNIDIPINE]	33	28.4	111	21.4	15.3	5.62	222	7.79	39.4	Non-toxic			
COC(=O)C1=C(C)NC(C)=C(C(=O)OC(C)C)C1c1cccc2nonc12 (centres undefined) [ISRADIPINE]										Non-toxic	20.8		
CCOC(=O)C1=C(C)NC(C)=C(C(=O)OCC)C1c1ccccc1/C=C/C(=O)OC(C)(C)C [LACIDIPINE]										Non-toxic	33.5		
COC(=O)C1=C(C)NC(C)=C(C(=O)OC(C)(C)CN(C)CCC(c2ccccc2)c2ccccc2)C1c1cccc([N+](=O)[O-])c1 (centres undefined) [LERCANIDIPINE]	19.2	10.4	16.9	11.6	10.3	8.43	435	42	51.6	Non-toxic			
COC(=O)C1=C(C)NC(C)=C(C(=O)OCCN(C)Cc2ccccc2)C1c1cccc([N+](=O)[O-])c1 (centres undefined) [NICARDIPINE]	35.7	22	26.5	21.8	19.1	10.6	71.6	3.25	6.76	Non-toxic			
COC(=O)C1=C(C)NC(C)=C(C(=O)OC)C1c1ccccc1[N+](=O)[O-] [NIFEDIPINE]	146	176	118	181	95.7	102	589	4.21	5.78	Non-toxic			
COCCOC(=O)C1=C(C)NC(C)=C(C(=O)OC(C)C)C1c1cccc([N+](=O)[O-])c1 (centres undefined) [NIMODIPINE]	82.7	21.6	128	31	42.8	32.3	96.2	4.45	2.98	Non-toxic			
CCOC(=O)C1=C(C)NC(C)=C(C(=O)OC)C1c1cccc([N+](=O)[O-])c1 (centres undefined) [NITRENDIPINE]	64.1	43.8	38.3	33.3	39	26.9	138	3.14	5.12	Non-toxic			
N=C(N)c1ccc(OCCCCCOc2ccc(C(=N)N)cc2)cc1 [PENTAMIDINE]	1.11		0.49	0.47	0.15		25.6			Non-toxic			
MEGLUMINE ANTIMONATE										Non-toxic		82.3	> 1370
